Source: the supplement of paper PMC12076712

Key:
Experiment in all cases: pIC50, kinobeads binding competition
TYK2 = TYK2 (UniProt P29597)
Summary of the method: (§1)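 Either living Jurkat cells (60 min at 37 °C, then lysis) or lysates (60 min at 4 °C) were treated with nine compound concentrations from a top of 30 μM, in 1:4 steps for cells and 1:5 steps for lysates. The lysates were from Jurkat cells or a 1:1:1:1 mix of HEK293, K-562, HepG2 and placenta. Kinobeads-bound proteins were digested and quantified by TMT10 LC-MS/MS. pIC50 was calculated by logistic dose-response fitting (R drc package) of fold changes relative to vehicle, in biological duplicates.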

DYRK1B = DYRK1B (UniProt Q9Y463)
Sequence of DYRK1B (Q9Y463 whole entry, looked up): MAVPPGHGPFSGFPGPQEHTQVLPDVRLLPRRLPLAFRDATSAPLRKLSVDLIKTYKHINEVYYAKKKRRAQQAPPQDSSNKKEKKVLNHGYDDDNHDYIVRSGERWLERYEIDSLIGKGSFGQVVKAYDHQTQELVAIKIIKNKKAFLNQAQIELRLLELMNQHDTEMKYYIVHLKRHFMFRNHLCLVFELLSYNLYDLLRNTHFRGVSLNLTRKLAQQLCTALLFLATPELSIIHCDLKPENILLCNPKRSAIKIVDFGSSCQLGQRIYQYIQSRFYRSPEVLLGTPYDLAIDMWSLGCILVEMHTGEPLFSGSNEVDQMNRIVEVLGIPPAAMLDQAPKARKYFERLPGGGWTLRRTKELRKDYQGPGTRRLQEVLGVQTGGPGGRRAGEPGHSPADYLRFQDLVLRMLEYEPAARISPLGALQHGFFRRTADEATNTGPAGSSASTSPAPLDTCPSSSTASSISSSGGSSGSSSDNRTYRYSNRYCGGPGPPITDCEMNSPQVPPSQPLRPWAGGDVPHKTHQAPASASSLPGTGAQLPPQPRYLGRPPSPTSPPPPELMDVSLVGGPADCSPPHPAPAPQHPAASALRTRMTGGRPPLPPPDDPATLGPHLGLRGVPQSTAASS
Summary of the method: as §1

UniProt Q05397 = target: UniProt Q05397
Sequence of UniProt Q05397 (Q05397 whole entry, looked up): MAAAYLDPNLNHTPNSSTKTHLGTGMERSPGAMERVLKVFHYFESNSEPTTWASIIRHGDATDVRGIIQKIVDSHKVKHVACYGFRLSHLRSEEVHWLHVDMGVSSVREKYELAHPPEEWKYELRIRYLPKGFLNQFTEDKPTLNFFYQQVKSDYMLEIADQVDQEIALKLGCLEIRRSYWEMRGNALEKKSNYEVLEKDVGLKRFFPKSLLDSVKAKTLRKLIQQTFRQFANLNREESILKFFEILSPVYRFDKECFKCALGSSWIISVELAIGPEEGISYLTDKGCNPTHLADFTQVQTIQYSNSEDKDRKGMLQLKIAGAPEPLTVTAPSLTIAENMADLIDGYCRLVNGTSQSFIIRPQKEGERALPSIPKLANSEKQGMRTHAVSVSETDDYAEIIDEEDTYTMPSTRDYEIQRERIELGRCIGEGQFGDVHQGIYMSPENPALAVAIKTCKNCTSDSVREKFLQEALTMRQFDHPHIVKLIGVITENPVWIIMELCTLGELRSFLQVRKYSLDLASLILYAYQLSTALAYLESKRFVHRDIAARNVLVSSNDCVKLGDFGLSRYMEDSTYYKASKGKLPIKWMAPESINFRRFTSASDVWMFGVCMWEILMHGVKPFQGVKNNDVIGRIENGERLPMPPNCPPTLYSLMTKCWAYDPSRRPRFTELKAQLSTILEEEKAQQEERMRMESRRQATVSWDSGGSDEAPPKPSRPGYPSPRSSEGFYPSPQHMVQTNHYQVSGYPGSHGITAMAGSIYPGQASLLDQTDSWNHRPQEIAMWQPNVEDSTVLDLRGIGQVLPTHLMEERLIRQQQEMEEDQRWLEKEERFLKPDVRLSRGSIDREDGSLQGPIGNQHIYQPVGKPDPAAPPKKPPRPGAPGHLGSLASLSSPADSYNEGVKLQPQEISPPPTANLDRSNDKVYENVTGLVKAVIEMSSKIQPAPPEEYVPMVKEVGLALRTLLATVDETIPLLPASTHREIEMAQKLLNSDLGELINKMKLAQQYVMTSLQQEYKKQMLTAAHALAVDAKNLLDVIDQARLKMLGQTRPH
Summary of the method: as §1

UniProt P07947 = target: UniProt P07947
Summary of the method: as §1

JAK3 = target: T1, JAK3 (UniProt P52333)
T1 sequence (whole entry): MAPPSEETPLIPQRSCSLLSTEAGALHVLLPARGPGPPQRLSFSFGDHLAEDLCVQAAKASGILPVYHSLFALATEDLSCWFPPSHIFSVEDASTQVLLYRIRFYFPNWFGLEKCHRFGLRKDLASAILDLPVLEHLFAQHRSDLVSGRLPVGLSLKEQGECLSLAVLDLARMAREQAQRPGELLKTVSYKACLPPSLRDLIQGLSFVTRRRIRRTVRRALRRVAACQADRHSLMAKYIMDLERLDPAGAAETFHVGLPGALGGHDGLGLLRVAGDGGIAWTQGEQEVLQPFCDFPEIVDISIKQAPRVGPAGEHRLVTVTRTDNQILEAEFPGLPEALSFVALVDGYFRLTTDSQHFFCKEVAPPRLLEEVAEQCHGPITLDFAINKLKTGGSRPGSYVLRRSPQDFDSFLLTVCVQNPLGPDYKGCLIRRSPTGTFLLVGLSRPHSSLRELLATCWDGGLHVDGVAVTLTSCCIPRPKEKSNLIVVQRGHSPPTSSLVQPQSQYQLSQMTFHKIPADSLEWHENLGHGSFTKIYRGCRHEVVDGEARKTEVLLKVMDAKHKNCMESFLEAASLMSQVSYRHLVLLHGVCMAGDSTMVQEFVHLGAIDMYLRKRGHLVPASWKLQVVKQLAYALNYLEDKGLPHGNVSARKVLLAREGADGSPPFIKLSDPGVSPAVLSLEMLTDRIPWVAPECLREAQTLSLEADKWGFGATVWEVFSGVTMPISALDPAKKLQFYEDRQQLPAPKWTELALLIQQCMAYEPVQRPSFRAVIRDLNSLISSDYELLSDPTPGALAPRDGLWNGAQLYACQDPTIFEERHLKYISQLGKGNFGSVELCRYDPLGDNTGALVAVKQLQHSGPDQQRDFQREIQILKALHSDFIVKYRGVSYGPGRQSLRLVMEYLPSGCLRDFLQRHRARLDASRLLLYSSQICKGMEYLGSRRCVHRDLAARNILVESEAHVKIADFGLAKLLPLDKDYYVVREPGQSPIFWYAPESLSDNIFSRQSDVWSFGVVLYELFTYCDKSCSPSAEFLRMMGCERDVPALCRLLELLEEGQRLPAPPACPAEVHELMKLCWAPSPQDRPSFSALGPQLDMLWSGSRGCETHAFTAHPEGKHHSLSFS
Summary of the method: as §1

LCK = LCK (UniProt P06239)
Sequence of LCK (P06239 whole entry, looked up): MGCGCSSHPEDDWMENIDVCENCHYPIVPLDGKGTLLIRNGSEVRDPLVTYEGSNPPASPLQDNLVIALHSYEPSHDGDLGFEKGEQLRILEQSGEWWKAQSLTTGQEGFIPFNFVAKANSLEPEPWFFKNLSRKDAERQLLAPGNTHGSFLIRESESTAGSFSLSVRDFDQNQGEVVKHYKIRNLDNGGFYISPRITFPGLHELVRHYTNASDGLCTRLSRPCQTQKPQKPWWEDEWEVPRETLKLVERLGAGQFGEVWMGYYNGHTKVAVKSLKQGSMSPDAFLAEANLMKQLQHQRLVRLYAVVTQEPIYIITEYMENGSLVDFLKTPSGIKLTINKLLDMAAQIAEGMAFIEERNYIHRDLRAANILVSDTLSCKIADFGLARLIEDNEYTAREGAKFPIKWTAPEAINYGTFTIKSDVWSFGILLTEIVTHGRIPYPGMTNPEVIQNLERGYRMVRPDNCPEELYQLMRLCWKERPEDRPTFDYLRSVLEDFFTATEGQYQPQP
Summary of the method: as §1

UniProt P78527 = target: UniProt P78527
Summary of the method: as §1

UniProt P25098 = target: T2, UniProt P25098
T2 sequence (whole entry): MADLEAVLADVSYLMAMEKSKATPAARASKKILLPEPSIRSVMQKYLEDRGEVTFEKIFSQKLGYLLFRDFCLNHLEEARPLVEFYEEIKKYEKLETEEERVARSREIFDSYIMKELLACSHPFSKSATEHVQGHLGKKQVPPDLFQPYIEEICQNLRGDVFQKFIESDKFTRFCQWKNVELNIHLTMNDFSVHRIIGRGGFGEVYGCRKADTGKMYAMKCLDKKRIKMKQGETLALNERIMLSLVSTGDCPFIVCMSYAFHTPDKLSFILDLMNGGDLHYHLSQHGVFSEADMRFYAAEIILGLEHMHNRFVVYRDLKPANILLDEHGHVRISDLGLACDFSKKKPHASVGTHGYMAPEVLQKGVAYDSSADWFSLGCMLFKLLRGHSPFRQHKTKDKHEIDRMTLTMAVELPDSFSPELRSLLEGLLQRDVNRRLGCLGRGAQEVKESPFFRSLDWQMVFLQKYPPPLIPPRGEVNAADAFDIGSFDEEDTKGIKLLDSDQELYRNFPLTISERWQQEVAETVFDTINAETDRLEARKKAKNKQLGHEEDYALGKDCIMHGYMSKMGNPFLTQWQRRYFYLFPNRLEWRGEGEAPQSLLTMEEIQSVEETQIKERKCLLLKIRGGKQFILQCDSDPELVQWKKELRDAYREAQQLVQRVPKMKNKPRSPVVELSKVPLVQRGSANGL
Summary of the method: as §1

DYRK2 = target: T3, DYRK2 (UniProt Q92630)
T3 sequence (whole entry): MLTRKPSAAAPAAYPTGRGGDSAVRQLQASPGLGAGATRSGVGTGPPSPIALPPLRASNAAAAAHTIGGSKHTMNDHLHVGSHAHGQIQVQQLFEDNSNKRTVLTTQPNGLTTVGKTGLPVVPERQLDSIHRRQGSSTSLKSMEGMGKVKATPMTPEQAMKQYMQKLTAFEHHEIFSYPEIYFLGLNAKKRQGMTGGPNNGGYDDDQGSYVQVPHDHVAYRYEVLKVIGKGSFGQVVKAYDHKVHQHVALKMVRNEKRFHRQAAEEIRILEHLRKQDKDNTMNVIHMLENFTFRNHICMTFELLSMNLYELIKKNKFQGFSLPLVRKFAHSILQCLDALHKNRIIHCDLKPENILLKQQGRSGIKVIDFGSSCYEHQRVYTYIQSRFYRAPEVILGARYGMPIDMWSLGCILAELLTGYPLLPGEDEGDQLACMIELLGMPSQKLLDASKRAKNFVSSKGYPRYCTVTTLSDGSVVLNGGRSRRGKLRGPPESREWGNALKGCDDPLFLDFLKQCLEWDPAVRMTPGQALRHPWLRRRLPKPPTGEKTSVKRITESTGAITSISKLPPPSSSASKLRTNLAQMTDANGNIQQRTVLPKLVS
Summary of the method: as §1

HIPK3 = HIPK3 (UniProt Q9H422)
Sequence of HIPK3 (Q9H422 whole entry, looked up): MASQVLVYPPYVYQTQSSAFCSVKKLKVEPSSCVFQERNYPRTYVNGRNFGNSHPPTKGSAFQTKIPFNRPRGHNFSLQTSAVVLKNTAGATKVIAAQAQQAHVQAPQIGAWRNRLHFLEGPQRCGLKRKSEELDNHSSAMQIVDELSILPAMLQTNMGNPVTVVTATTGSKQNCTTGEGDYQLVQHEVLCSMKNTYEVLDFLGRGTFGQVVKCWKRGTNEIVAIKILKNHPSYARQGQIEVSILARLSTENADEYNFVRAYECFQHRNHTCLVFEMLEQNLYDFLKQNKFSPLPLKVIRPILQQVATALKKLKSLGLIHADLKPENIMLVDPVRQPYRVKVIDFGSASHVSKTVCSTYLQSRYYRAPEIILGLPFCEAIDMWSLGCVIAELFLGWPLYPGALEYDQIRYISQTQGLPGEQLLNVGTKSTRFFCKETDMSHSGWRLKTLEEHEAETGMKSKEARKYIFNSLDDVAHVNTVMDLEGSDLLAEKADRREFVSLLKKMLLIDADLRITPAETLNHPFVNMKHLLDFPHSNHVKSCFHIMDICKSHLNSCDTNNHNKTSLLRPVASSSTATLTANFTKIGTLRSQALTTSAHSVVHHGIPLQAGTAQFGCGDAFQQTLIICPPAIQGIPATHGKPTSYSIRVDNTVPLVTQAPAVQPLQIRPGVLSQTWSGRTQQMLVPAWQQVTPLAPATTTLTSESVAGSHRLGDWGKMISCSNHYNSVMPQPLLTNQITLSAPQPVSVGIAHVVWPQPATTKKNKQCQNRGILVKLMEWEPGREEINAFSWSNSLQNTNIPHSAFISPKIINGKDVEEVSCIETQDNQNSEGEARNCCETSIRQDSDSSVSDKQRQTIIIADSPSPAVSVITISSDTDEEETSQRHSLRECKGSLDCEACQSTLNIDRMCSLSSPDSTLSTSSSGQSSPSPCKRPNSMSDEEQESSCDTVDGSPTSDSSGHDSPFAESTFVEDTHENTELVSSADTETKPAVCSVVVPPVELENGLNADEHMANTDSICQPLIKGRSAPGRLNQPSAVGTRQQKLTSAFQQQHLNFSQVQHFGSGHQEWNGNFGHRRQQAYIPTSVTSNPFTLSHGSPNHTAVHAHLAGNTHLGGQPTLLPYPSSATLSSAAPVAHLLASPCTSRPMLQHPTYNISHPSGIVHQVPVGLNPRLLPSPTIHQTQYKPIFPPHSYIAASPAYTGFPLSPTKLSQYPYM
Summary of the method: as §1

Sequence of TYK2 (P29597 whole entry): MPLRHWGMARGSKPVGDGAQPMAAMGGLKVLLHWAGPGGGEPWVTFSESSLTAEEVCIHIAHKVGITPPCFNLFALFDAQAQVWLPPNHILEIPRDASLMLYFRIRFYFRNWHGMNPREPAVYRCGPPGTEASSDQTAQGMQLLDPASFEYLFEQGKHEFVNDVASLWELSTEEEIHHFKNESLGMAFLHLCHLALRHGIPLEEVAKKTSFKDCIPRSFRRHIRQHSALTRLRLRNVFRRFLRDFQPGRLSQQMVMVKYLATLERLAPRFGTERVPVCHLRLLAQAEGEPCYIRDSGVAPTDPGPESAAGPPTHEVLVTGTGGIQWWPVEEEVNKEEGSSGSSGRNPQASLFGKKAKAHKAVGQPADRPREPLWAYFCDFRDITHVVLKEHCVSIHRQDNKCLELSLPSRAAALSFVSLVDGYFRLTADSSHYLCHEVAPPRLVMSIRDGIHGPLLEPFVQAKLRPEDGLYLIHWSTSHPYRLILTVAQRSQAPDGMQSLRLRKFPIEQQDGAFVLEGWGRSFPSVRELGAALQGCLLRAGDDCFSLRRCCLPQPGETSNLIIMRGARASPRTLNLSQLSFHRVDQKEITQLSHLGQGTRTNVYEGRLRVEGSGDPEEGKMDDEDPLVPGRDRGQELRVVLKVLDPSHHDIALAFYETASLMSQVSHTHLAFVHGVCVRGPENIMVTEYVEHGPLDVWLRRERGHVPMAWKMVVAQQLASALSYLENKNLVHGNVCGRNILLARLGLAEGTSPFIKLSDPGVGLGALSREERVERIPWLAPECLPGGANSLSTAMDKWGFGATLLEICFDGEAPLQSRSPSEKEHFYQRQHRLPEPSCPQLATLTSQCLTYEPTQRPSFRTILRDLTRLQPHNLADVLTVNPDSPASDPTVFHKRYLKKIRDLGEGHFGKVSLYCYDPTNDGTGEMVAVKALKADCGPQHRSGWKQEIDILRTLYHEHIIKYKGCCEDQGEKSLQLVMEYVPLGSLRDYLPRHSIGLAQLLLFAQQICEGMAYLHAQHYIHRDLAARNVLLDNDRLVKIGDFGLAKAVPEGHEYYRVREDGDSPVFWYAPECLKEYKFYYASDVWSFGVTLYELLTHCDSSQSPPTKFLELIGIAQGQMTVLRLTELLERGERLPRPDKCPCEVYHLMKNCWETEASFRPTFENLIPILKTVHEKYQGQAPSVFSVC

Row | pIC50 (TYK2; cell material: Lysate mix) | pIC50 (DYRK1B; cell material: Lysate mix) | pIC50 (UniProt Q05397; cell material: Lysate mix) | pIC50 (UniProt P07947; cell material: Lysate mix) | pIC50 (JAK3; cell material: Lysate mix) | pIC50 (UniProt P78527; cell material: Lysate mix) | pIC50 (UniProt P25098; cell material: Lysate mix) | pIC50 (DYRK2; cell material: Lysate mix) | pIC50 (HIPK3; cell material: Lysate mix) | pIC50 (LCK; cell material: Lysate mix) | Compound | pIC50 (TYK2; cell material: Jurkat cells) | pIC50 (TYK2; cell material: Jurkat lysate) | pIC50 (DYRK1B; cell material: Jurkat cells) | pIC50 (DYRK1B; cell material: Jurkat lysate) | pIC50 (UniProt Q05397; cell material: Jurkat cells) | pIC50 (UniProt Q05397; cell material: Jurkat lysate) | pIC50 (UniProt P07947; cell material: Jurkat cells) | pIC50 (UniProt P07947; cell material: Jurkat lysate) | pIC50 (JAK3; cell material: Jurkat cells) | pIC50 (JAK3; cell material: Jurkat lysate) | pIC50 (LCK; cell material: Jurkat cells) | pIC50 (LCK; cell material: Jurkat lysate) | pIC50 (UniProt P78527; cell material: Jurkat cells) | pIC50 (UniProt P78527; cell material: Jurkat lysate) | pIC50 (UniProt P25098; cell material: Jurkat cells) | pIC50 (UniProt P25098; cell material: Jurkat lysate) | pIC50 (DYRK2; cell material: Jurkat cells) | pIC50 (DYRK2; cell material: Jurkat lysate) | pIC50 (HIPK3; cell material: Jurkat cells) | pIC50 (HIPK3; cell material: Jurkat lysate)
1 | < 4.52 | < 4.52 | < 4.52 | 5.25 | < 4.52 | < 4.52 | < 4.52 | < 4.52 | < 4.52 | < 4.52 | Cc1cc(Nc2cc(C(=O)NCCNC(=O)OC3CC/C=C/CCC3)nc(N3CCN(Cc4ccc(S(=O)(=O)F)cc4)CC3)n2)n[nH]1 (configuration not stated) |  |  |  |  |  |  |  |  |  |  |  |  |  |  |  |  |  |  |  | 
2 | < 4.52 | 5.08 | < 4.52 | 6.44 | 5.97 | < 4.52 | < 4.52 | 4.65 | 5.74 | 5.89 | CCNC(=O)c1cc(Nc2cc(C3CC3)[nH]n2)nc(N2CCN(Cc3ccc(S(=O)(=O)F)cc3)CC2)n1 |  |  |  |  |  |  |  |  |  |  |  |  |  |  |  |  |  |  |  | 

More lines, now with the values behind:

Row | Compound | pIC50 (TYK2; cell material: Lysate mix) | pIC50 (DYRK1B; cell material: Lysate mix) | pIC50 (UniProt Q05397; cell material: Lysate mix) | pIC50 (UniProt P07947; cell material: Lysate mix) | pIC50 (JAK3; cell material: Lysate mix) | pIC50 (UniProt P78527; cell material: Lysate mix) | pIC50 (UniProt P25098; cell material: Lysate mix) | pIC50 (DYRK2; cell material: Lysate mix) | pIC50 (HIPK3; cell material: Lysate mix) | pIC50 (LCK; cell material: Lysate mix) | pIC50 (TYK2; cell material: Jurkat cells) | pIC50 (TYK2; cell material: Jurkat lysate) | pIC50 (DYRK1B; cell material: Jurkat cells) | pIC50 (DYRK1B; cell material: Jurkat lysate) | pIC50 (UniProt Q05397; cell material: Jurkat cells) | pIC50 (UniProt Q05397; cell material: Jurkat lysate) | pIC50 (UniProt P07947; cell material: Jurkat cells) | pIC50 (UniProt P07947; cell material: Jurkat lysate) | pIC50 (JAK3; cell material: Jurkat cells) | pIC50 (JAK3; cell material: Jurkat lysate) | pIC50 (LCK; cell material: Jurkat cells) | pIC50 (LCK; cell material: Jurkat lysate) | pIC50 (UniProt P78527; cell material: Jurkat cells) | pIC50 (UniProt P78527; cell material: Jurkat lysate) | pIC50 (UniProt P25098; cell material: Jurkat cells) | pIC50 (UniProt P25098; cell material: Jurkat lysate) | pIC50 (DYRK2; cell material: Jurkat cells) | pIC50 (DYRK2; cell material: Jurkat lysate) | pIC50 (HIPK3; cell material: Jurkat cells) | pIC50 (HIPK3; cell material: Jurkat lysate)
3 | O=C(NCCNC(=O)c1cc(Nc2cc(C3CC3)[nH]n2)nc(N2CCN(Cc3ccc(S(=O)(=O)F)cc3)CC2)n1)OC1CC/C=C/CCC1 (configuration not stated) | < 4.52 | < 4.52 | < 4.52 | 5.24 | < 4.52 | < 4.52 | < 4.52 | < 4.52 | < 4.52 |  | < 4.52 | < 4.52 | 4.8 | < 4.52 | < 4.52 | < 4.52 | 6.18 | 4.62 | 5.39 | < 4.52 | 5.67 | < 4.52 | < 4.52 | < 4.52 | 5 | < 4.52 | < 4.52 | < 4.52 | 5.22 | < 4.52
4 | CCNC(=O)c1cc(Nc2cc(C)[nH]n2)nc(N2CCN(Cc3ccc(S(=O)(=O)F)cc3)CC2)n1 | < 4.52 | < 4.52 | < 4.52 | 7.16 | 5.89 | < 4.52 | < 4.52 | < 4.52 | 4.62 | 5.72 |  |  |  |  |  |  |  |  |  |  |  |  |  |  |  |  |  |  |  | 
5 | C#CCNC(=O)c1cc(Nc2cc(C3CC3)[nH]n2)nc(N2CCN(Cc3ccc(S(=O)(=O)F)cc3)CC2)n1 | < 4.52 | < 4.52 | < 4.52 | 6.62 | 6.08 | < 4.52 |  |  | 5.76 | 6.07 | < 4.52 | < 4.52 | 5.47 | < 4.52 | < 4.52 | < 4.52 | 6.61 | 5.84 | 5.94 | 5.42 | 6.47 | 5.64 | < 4.52 | < 4.52 | 5.69 | < 4.52 | < 4.52 | < 4.52 | 5.92 | 4.89
6 | C#CCNC(=O)c1cc(Nc2cc(C)[nH]n2)nc(N2CCN(Cc3ccc(S(=O)(=O)F)cc3)CC2)n1 | < 4.52 | < 4.52 | < 4.52 | 6.3 | 5.7 | < 4.52 | < 4.52 | < 4.52 | 4.76 | 5.66 |  |  |  |  |  |  |  |  |  |  |  |  |  |  |  |  |  |  |  | 
